What was measured:
sodium channel = assay: Guanidine influx assay (in vitro); assay type: cell-based, human or rat; settings: known cell line that expresses a sodium channel; read-out: IC50 Activity Level
Excerpt: This example describes an in vitro assay for testing and profiling test agents against human or rat sodium channels stably expressed in cells of either an endogenous or recombinant origin. The assay is also useful for determining the IC-50 of a sodium channel blocking compound. The assay is based on the guanidine flux assay described by Reddy, N. L., et al., J Med Chem (1998), 41(17):3298-302.
The guanidine influx assay is a radiotracer flux assay used to determine ion flux activity of sodium channels in a high-throughput microplate-based format. The assay uses ^14C-guanidine hydrochloride in combination with various known sodium channel modulators, to assay the potency of test agents. Potency is determined by an IC-50 calculation. Selectivity is determined by comparing potency of the compound for the channel of interest to its potency against other sodium channels (also called ‘selectivity profiling’). […]
Cells expressing the channel of interest are grown according to the supplier or in the case of a recombinant cell in the presence of selective growth media such as G418 (Gibco/Invitrogen). The cells are disassociated from the culture dishes with an enzymatic solution (1×) Trypsin/EDTA (Gibco/Invitrogen) and analyzed for density and viability using haemocytometer (Neubauer). […]
IC-50 value of a test agent for a specific sodium channel may be determined using the above general method. […]

Q: With `O=C1N2CCCOc3cccc(c32)C12COc1cc3c(cc12)OCO3` (stereo not drawn) [Example 2] as the molecule, how does the IC50 (sodium channel) read?
A: 0.1 to 1 µM

Q: With `O=C1N2CCCCc3ccc(Br)c(c32)C12COc1cc3c(cc12)OCO3` (stereo not drawn) [Example 4] as the molecule, how does the IC50 (sodium channel) read?
A: 0.01 to 0.1 µM

Q: Which melting point does the source give for `O=C1N2CCCSc3cccc(c32)C12COc1cc3c(cc12)OCO3` (stereo not drawn) [Synthetic Example 1, 3′,4′-Dihydro-2′H-spiro[furo[2,3-f][1,3]benzodioxole-7,7′-[1,4]thiazepino[2,3,4-hi]indol]-6′-one] here?
A: 216 to 217 °C

— US20110237567A9, “TRICYCLIC SPIRO-OXINDOLE DERIVATIVES AND THEIR USES AS THERAPEUTIC AGENTS” (XENON PHARMACEUTICALS INC., priority 2006, published 2011)
